What was measured:
[1] = Cytotoxicity against human HepG2.2.15 cells assessed as reduction in cell viability by CellTiter-Glo reagent based assay; format: toxicity, HepG2 2.2.15
Hepatitis B virus = assay: Antiviral activity against Hepatitis B virus infected in human HepG2.2.15 cells; format: functional, organism-based
[2] = Cmax in ICR mouse at 50 mg/kg, po; format: ADME, organism-based; set-up: route oral, dose 50 mg/kg; conditions: in vivo
[3] = AUC (0 to infinity) in ICR mouse at 50 mg/kg, po; format: ADME, organism-based; set-up: route oral, time infinity, dose 50 mg/kg; conditions: in vivo
[4] = Tmax in ICR mouse at 50 mg/kg, po; format: ADME, organism-based; conditions: in vivo
[5] = Half life in ICR mouse at 50 mg/kg, po; format: ADME, organism-based; conditions: in vivo

SMILES	EC50 (Hepatitis B virus) [nM]	Cmax [2] [ng/mL]	AUC(0-inf) [3] [ng·h/mL]	Tmax [4] [min]	half-life [5] [min]	CC50 [1] [nM]
C[C@H]1Cn2ncc(N3CC(c4ccccc4)CC3=O)c2CN1C(=O)NCc1cc(F)c(F)c(F)c1 (some centres undefined)	> 2000	–	–	–	–	> 2000
C[C@H]1Cn2ncc(N3CC(c4ccccc4)CC3=O)c2CN1S(=O)(=O)Nc1cc(F)c(F)c(F)c1 (some centres undefined)	> 2000	–	–	–	–	> 2000
N#CC1CC(=O)N(c2cnn3c2CN(C(=O)Nc2cc(F)c(F)c(F)c2)C2(CC2)C3)C1 (centres undefined)	124	–	–	–	–	> 200000
O=C1OC(c2ccccc2)CN1c1cnn2c1CN(C(=O)Nc1cc(F)c(F)c(F)c1)C(C1CC1)C2 (centres undefined)	18	–	–	–	–	7410
Cc1nc(C2CC(=O)N(c3cnn4c3CN(C(=O)Nc3cc(F)c(F)c(F)c3)C(C3CC3)C4)C2)no1 (centres undefined)	16	3860	3860	19.8	202	> 200000
C[C@H]1Cn2ncc(N3CC(c4ccccc4)CC3=O)c2CN1C(=S)Nc1cc(F)c(F)c(F)c1 (some centres undefined)	> 2000	–	–	–	–	> 2000
C[C@H]1Cn2ncc(N3CC(c4ccccc4)CC3=O)c2CN1C(=O)Nc1cc(F)c(F)c(F)c1 (some centres undefined)	9	3130	6510	15	136	12800
CC1(C)CN(C(=O)Nc2cc(F)c(F)c(F)c2)Cc2c(N3CC(C#N)CC3=O)cnn21 (centres undefined)	38	–	–	–	–	> 200000
O=C1c2ccccc2CN1c1cnn2c1CN(C(=O)Nc1cc(F)c(F)c(F)c1)C(C1CC1)C2 (centres undefined)	83	–	–	–	–	38500
O=C(Nc1cc(F)c(F)c(F)c1)N1CCCn2ncc(N3CC(c4ccccc4)CC3=O)c2C1 (centres undefined)	> 2000	–	–	–	–	> 2000
O=C1CC(c2ccccc2)CN1c1cnn2c1CN(C(=O)Nc1cc(F)c(F)c(F)c1)C1CCCCC12 (centres undefined)	27	–	–	–	–	21400
CC1CCn2ncc(N3CC(c4ccccc4)CC3=O)c2CN1C(=O)Nc1cc(F)c(F)c(F)c1 (centres undefined)	> 2000	–	–	–	–	> 2000
O=C1NC(c2ccccc2)CN1c1cnn2c1CN(C(=O)Nc1cc(F)c(F)c(F)c1)C(C1CC1)C2 (centres undefined)	3	–	–	–	–	38500
O=C(Nc1cc(F)c(F)c(F)c1)N1Cc2c(-c3ccc(F)cc3F)cnn2CC1C1CC1 (centres undefined)	23	–	–	–	–	32000
CC1CN(C(=O)Nc2cc(F)c(F)c(F)c2)Cc2c(N3CC(C#N)CC3=O)cnn21 (centres undefined)	62	–	–	–	–	115000
O=C1OC(c2ccc(F)cc2)CN1c1cnn2c1CN(C(=O)Nc1cc(F)c(F)c(F)c1)C(C1CC1)C2 (centres undefined)	11	–	–	–	–	3560
O=C1CC(C(F)(F)F)CN1c1cnn2c1CN(C(=O)Nc1cc(F)c(F)c(F)c1)C(C1CC1)C2 (centres undefined)	34	–	–	–	–	115000
O=C1CC(c2ccccc2)CN1c1cnn2c1CN(C(=O)Nc1cc(F)c(F)c(F)c1)C(C1CC1)C2 (centres undefined)	6	–	–	–	–	12800
CC1(C)CC(=O)N(c2cnn3c2CN(C(=O)Nc2cc(F)c(F)c(F)c2)C(C2CC2)C3)C1 (centres undefined)	20	–	–	–	–	115000
O=C1CC(c2ccccc2)CN1c1cnn2c1CN(C(=O)Nc1cc(F)c(F)c(F)c1)C(Cc1ccccc1)C2 (centres undefined)	> 2000	–	–	–	–	> 2000
C[C@H]1Cn2ncc(N3CC(c4ccccc4)CC3=O)c2CN1CC(=O)Nc1cc(F)c(F)c(F)c1 (some centres undefined)	> 2000	–	–	–	–	> 2000
O=C(Nc1cc(F)c(F)c(F)c1)N1Cc2c(-c3ccc(F)cc3)cnn2CC1C1CC1 (centres undefined)	4	–	–	–	–	38500

Continued, in another order:

EC50 (Hepatitis B virus) [nM]	Cmax [2] [ng/mL]	AUC(0-inf) [3] [ng·h/mL]	Tmax [4] [min]	half-life [5] [min]	SMILES	CC50 [1] [nM]
23	–	–	–	–	O=C1CC(c2ccc(F)cc2)CN1c1cnn2c1CN(C(=O)Nc1cc(F)c(F)c(F)c1)C(C1CC1)C2 (centres undefined)	32000
9	8740	12200	15	222	O=C1CC(c2ncco2)CN1c1cnn2c1CN(C(=O)Nc1cc(F)c(F)c(F)c1)C(C1CC1)C2 (centres undefined)	> 200000
15	–	–	–	–	O=C1CC(c2ccc(F)cn2)CN1c1cnn2c1CN(C(=O)Nc1cc(F)c(F)c(F)c1)C(C1CC1)C2 (centres undefined)	38500
20	–	–	–	–	O=C1CC(c2ncc(F)cn2)CN1c1cnn2c1CN(C(=O)Nc1cc(F)c(F)c(F)c1)C(C1CC1)C2 (centres undefined)	115000
15	5980	5070	15	52.2	O=C1CC(c2ncccn2)CN1c1cnn2c1CN(C(=O)Nc1cc(F)c(F)c(F)c1)C(C1CC1)C2 (centres undefined)	> 200000
11	–	–	–	–	O=C1CC(c2nccs2)CN1c1cnn2c1CN(C(=O)Nc1cc(F)c(F)c(F)c1)C(C1CC1)C2 (centres undefined)	115000
12	–	–	–	–	O=C1CC(c2ccccn2)CN1c1cnn2c1CN(C(=O)Nc1cc(F)c(F)c(F)c1)C(C1CC1)C2 (centres undefined)	96200
27	–	–	–	–	O=C1CC(c2cnc(C(F)(F)F)s2)CN1c1cnn2c1CN(C(=O)Nc1cc(F)c(F)c(F)c1)C(C1CC1)C2 (centres undefined)	38500
9	–	–	–	–	O=C1CC(Oc2ncc(F)cn2)CN1c1cnn2c1CN(C(=O)Nc1cc(F)c(F)c(F)c1)C(C1CC1)C2 (centres undefined)	96200
16	–	–	–	–	O=C1CC(c2cnco2)CN1c1cnn2c1CN(C(=O)Nc1cc(F)c(F)c(F)c1)C(C1CC1)C2 (centres undefined)	139000
12	6400	10600	15	278	N#CC1CC(=O)N(c2cnn3c2CN(C(=O)Nc2cc(F)c(F)c(F)c2)C(C2CC2)C3)C1 (centres undefined)	> 200000
16	5270	4020	15	57	O=C1CC(Oc2ncccn2)CN1c1cnn2c1CN(C(=O)Nc1cc(F)c(F)c(F)c1)C(C1CC1)C2 (centres undefined)	> 200000
18	–	–	–	–	Cc1cnc(C2CC(=O)N(c3cnn4c3CN(C(=O)Nc3cc(F)c(F)c(F)c3)C(C3CC3)C4)C2)s1 (centres undefined)	96200
